Active and inactive are the calls of the source.
Key:
Assay type in all cases: functional, organism-based
Staphylococcus aureus [1] = test: Antimicrobial activity against methicillin-resistant Staphylococcus aureus at < 10 ug/ml
Pseudomonas aeruginosa = test: Antimicrobial activity against Pseudomonas aeruginosa at < 10 ug/ml
Escherichia coli = test: Antimicrobial activity against Escherichia coli at < 10 ug/ml
Enterococcus faecium = test: Antimicrobial activity against vancomycin-resistant Enterococcus faecium at < 10 ug/ml
Enterococcus faecalis = test: Antimicrobial activity against Enterococcus faecalis at < 10 ug/ml
Staphylococcus aureus [2] = test: Antimicrobial activity against Staphylococcus aureus at < 10 ug/ml

Measured: Activity

C=C1C(=O)OCC1C/C=C(\C)CC(=O)C=C(C)C (stereo unspecified)
inactive: all assays above

— ChEMBL document CHEMBL1158713, “Anthecotulide: purification, analytical data, absence from chamomile preparations, stability and reactivity, and anti-infective testing” (J Nat Prod, 2005)
